Assay results published in PubChem BioAssay AID1963429 (Molecular Pharmacology Branch, DTP, NCI, 2024).

System: 126254-015-R-J1-PDC complex spheroid growth, % test/control
Assay: Anticancer human tumor 126254-015-R-J1-PDC patient-derived soft tissue sarcoma cell line growth inhibition [Asc]
Conditions: for IC50: curve of first compound; for viability, T/C: stronger effect = lower value
Procedure: Multicellular complex tumor spheroid response to apoptosis pathway targeting inhibitors Alrizomadlin, Pelcitoclax, and Dasminapant in combination with a variety of drugs and investigational agents in selected tumor cell lines
The MDM2 inhibitor alrizomadlin, the Bcl-2/Bcl-xL inhibitor pelcitoclax, and the IAPs inhibitor dasminapant were evaluated both individually and in combination with standard of care and investigational anticancer small molecules within a complex spheroid model of solid tumors. . Complex spheroids include a stromal component modeled by human endothelial cells (HUVEC) and fibroblasts modeled by human mesenchymal stem cells (MSCs). The concentration ranges selected for each drug and investigational agent were based upon clinically achievable concentrations if the clinical Cmax of the agent was known.
Compounds. The drugs and investigational agents: alrizomadlin (APG-115; NSC831270), pelcitoclax (APG-1252; NSC835773), dasminapant (APG-1387;NSC834197), TAK-243 (NSC785004), copanlisib (NSC809693), olaparib (NSC753686), talazoparib (NSC767125), cobimetinib (NSC 768068), eltanexor (KPT-8602, NSC 794443), abemaciclib (NSC 768073), sotorasib (NSC818433), adagrasib (NSC 831453), MRTX-1133 (NSC 836407), Iadademestat (ORY1001, NSC 806812), and RMC-4630 (NSC839698), were obtained from the NCI Developmental Therapeutics Program Chemical Repository. The FDA-approved anticancer drug set is available from the Developmental Therapeutics Program at https://dtp.cancer.gov/organization/dscb/obtaining/available plates.htm. […] The stock solutions were prepared in dimethyl sulfoxide (DMSO, Sigma-Aldrich, St. Louis, MO, cat. D2650) at 800-fold the tested concentration and stored at -70 degrees C prior to their use. All drugs and investigational agents were tested over a range starting from a high concentration at or near the clinical Cmax and decreasing in half-log increments. If the clinical Cmax for an agent had not been determined, the highest concentration tested was 10 microM.
The patient-derived cancer (PDC) cell lines include five colon adenocarcinomas: 186277-243-T-J2-PDC, 616215-338-R-J1-PDC, 439559-082-T-J2-PDC, 463943-066-T-J2-PDC, and 519858-162-T-J1-PDC; three pancreatic carcinomas: 323965-272-R-J2-PDC, 521955-158-R6-J3-PDC, and 521955-158-R2-J5-PDC; two uterine sarcomas: 327498-152-R-J2-PDC and 993429-296-R-J1-PDC; two rhabdomyosarcomas: 755483-174-R-J1-PDC and 772245-204-R-J1-PDC; two soft tissue sarcomas: 126254-015-R-J1-PDC and 494315-158-R-J1-PDC; two malignant fibrous histiocytomas: 317291-083-R-J1-PDC and 596521-263-R-J1-PDC; two breast carcinomas: 171881-019-R-J1-PDC and 885512-296-R-J2-PDC; and one ovarian carcinoma: 6556581-035-R-J-PDC were obtained from the NCI PDMR, (https://pdmr.cancer.gov). The established cell lines HSSY-2 synovial sarcoma (RRID:CVCL 8719), SYO-1 synovial sarcoma (RRID:CVCL_7146), MPNST malignant peripheral neural sheath tumor were obtained from the Sloan Kettering Institute. The following established cell lines were purchased from the American Type Culture Collection (ATCC, Manassas, VA), Sor the received from the NCI repository:, PANC-1 pancreatic carcinoma (CRL-1469, RRID:CVCL_0480), OVCAR-5 ovarian carcinoma (RRID:CVCL_1628), OVCAR-8 ovarian carcinoma (RRID:CVCL_1629), , MCF-7 breast carcinoma (CRL-12584, RRID:CVCL_0031), MDA-MB-231 breast carcinoma (CRL-12532, RRID:CVCL_0062), NCI-H1876 small cell lung carcinoma (CRL-5902, RRID:CVCL_1503), NCI-H510A small cell lung carcinoma (HTB-184, RRID:CVCL_1565), NCI-H1417 (CRL-5869, RRID:CVCL_1469), and NCI-H196 small cell lung carcinoma (CRL-5823, RRID:CVCL_1509). Dr. Peter Houghton (Greehey Children's Cancer Research Institute, University of Texas Health Science Center, San Antonio, TX) provided Rh-18 rhabdomyosarcoma (RRID:CVCL_1659). Pooled donor human umbilical vein endothelial cells (HUVEC, Lonza, cat. CC-2519) and human mesenchymal stem cells (hMSC, Lonza, cat. PT-2501) were purchased from Lonza (Walkersville, MD).
Cell Culture. […]

[1] = second compound 0.1 µM, first compound 0.00316 µM
[2] = second compound 0.1 µM, first compound 0.01 µM
[3] = second compound 0.1 µM, first compound 0.0316 µM
[4] = second compound 0.1 µM, first compound 0.1 µM
[5] = second compound 0.316 µM, first compound 0.00316 µM
[6] = second compound 0.316 µM, first compound 0.01 µM
[7] = second compound 0.316 µM, first compound 0.0316 µM
[8] = second compound 0.316 µM, first compound 0.1 µM
[9] = second compound 1 µM, first compound 0.00316 µM
[10] = second compound 1 µM, first compound 0.01 µM
[11] = second compound 1 µM, first compound 0.0316 µM
[12] = second compound 1 µM, first compound 0.1 µM
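Further: spheroids exposed to compound for seven days.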
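Wherever viability, T/C is given: 100% = DMSO vehicle control wells.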

`Cn1ncnc1[C@H]1c2n[nH]c(=O)c3cc(F)cc(c23)N[C@@H]1c1ccc(F)cc1` + CNC(C)C(=O)NC1CN(S(=O)(=O)c2cccc(S(=O)(=O)N3CCC4CCC(C(=O)NC(c5ccccc5)c5ccccc5)N4C(=O)C(NC(=O)C(C)NC)C3)c2)CCC2CCC(C(=O)NC(c3ccccc3)c3ccccc3)N2C1=O showed an IC50 (second compound 0.01 µM) greater than 100 nM, an IC50 (second compound 0.0316 µM) greater than 100 nM and an IC50 (second compound 0.1 µM) of 56.2 nM. The IC50 (second compound 0.316 µM) was 13.1 nM, the IC50 (second compound 1 µM) was 10 nM and the viability, T/C (second compound 0.01 µM, first compound 0.000316 µM) was 82.1%. For the same molecule, the viability, T/C (second compound 0.01 µM, first compound 0.001 µM) was 82.3%, the viability, T/C (second compound 0.01 µM, first compound 0.00316 µM) was 78.2% and the viability, T/C (second compound 0.01 µM, first compound 0.01 µM) was 79.6%. The viability, T/C (second compound 0.01 µM, first compound 0.0316 µM) was 77.3%, the viability, T/C (second compound 0.01 µM, first compound 0.1 µM) was 63.1% and the viability, T/C (second compound 0.0316 µM, first compound 0.000316 µM) was 71%. For the same molecule, the viability, T/C (second compound 0.0316 µM, first compound 0.001 µM) was 77.3%, the viability, T/C (second compound 0.0316 µM, first compound 0.00316 µM) was 71% and the viability, T/C (second compound 0.0316 µM, first compound 0.01 µM) was 61.4%. For the same molecule, the viability, T/C (second compound 0.0316 µM, first compound 0.0316 µM) was 56.1%, the viability, T/C (second compound 0.0316 µM, first compound 0.1 µM) was 58.1% and the viability, T/C (second compound 0.1 µM, first compound 0.000316 µM) was 67.3%. It also gave a viability, T/C (second compound 0.1 µM, first compound 0.001 µM) of 67.4%, a viability, T/C [1] of 60.5% and a viability, T/C [2] of 55.8%. For the same molecule, the viability, T/C [3] was 58.4%, the viability, T/C [4] was 44.7% and the viability, T/C (second compound 0.316 µM, first compound 0.000316 µM) was 56%. For the same molecule, the viability, T/C (second compound 0.316 µM, first compound 0.001 µM) was 70.9%, the viability, T/C [5] was 59.2% and the viability, T/C [6] was 51.8%. The viability, T/C [7] was 44.4%, the viability, T/C [8] was 41% and the viability, T/C (second compound 1 µM, first compound 0.000316 µM) was 53.2%. The viability, T/C (second compound 1 µM, first compound 0.001 µM) was 63.7%, the viability, T/C [9] was 56.2% and the viability, T/C [10] was 42.4%. It also gave a viability, T/C [11] of 46.8% and a viability, T/C [12] of 44.1%.

`O=C(c1ccc(F)c(F)c1Nc1ccc(I)cc1F)N1CC(O)([C@@H]2CCCCN2)C1` + Cc1c(S(C)(=O)=O)c(-c2cc(F)cc(N3CCN(c4ccc(NS(=O)(=O)c5ccc(NC(CCN6CCC(C(=O)OCCCP(=O)(O)O)CC6)CSc6ccccc6)c(S(=O)(=O)C(F)(F)F)c5)cc4)CC3)c2)c(-c2ccc(Cl)cc2)n1C(C)C gave an IC50 (second compound 0.1 µM) of 644 nM, an IC50 (second compound 0.316 µM) of 502 nM and an IC50 (second compound 1 µM) of 494 nM. The IC50 (second compound 3.16 µM) was 420 nM, the IC50 (second compound 10 µM) was 321 nM and the viability, T/C [1] was 87.3%. It also gave a viability, T/C [2] of 106%, a viability, T/C [3] of 106% and a viability, T/C [4] of 87.7%. The viability, T/C (second compound 0.1 µM, first compound 0.316 µM) was 70.7%, the viability, T/C (second compound 0.1 µM, first compound 1 µM) was 37.6% and the viability, T/C [5] was 88.5%. For the same molecule, the viability, T/C [6] was 87.7%, the viability, T/C [7] was 84.7% and the viability, T/C [8] was 83.4%. The viability, T/C (second compound 0.316 µM, first compound 0.316 µM) was 60.9%, the viability, T/C (second compound 0.316 µM, first compound 1 µM) was 33.6% and the viability, T/C [9] was 89.2%. The viability, T/C [10] was 93.7%, the viability, T/C [11] was 83.9% and the viability, T/C [12] was 79.3%. It also gave a viability, T/C (second compound 1 µM, first compound 0.316 µM) of 65.5%, a viability, T/C (second compound 1 µM, first compound 1 µM) of 26.9% and a viability, T/C (second compound 3.16 µM, first compound 0.00316 µM) of 88.1%. For the same molecule, the viability, T/C (second compound 3.16 µM, first compound 0.01 µM) was 92%, the viability, T/C (second compound 3.16 µM, first compound 0.0316 µM) was 75.5% and the viability, T/C (second compound 3.16 µM, first compound 0.1 µM) was 82.5%. For the same molecule, the viability, T/C (second compound 3.16 µM, first compound 0.316 µM) was 55.8%, the viability, T/C (second compound 3.16 µM, first compound 1 µM) was 27.6% and the viability, T/C (second compound 10 µM, first compound 0.00316 µM) was 90.1%. For the same molecule, the viability, T/C (second compound 10 µM, first compound 0.01 µM) was 98%, the viability, T/C (second compound 10 µM, first compound 0.0316 µM) was 80.2% and the viability, T/C (second compound 10 µM, first compound 0.1 µM) was 75.3%. It also gave a viability, T/C (second compound 10 µM, first compound 0.316 µM) of 49.6% and a viability, T/C (second compound 10 µM, first compound 1 µM) of 25.3%.
